Experimental data as given in publication PMC7572570 (Clinical cancer research : an official journal of the …, 2020).
Where “and” joins values, the source holds several entries; their conditions need not be identical. Equal entries are not always repeated. Where two headings read alike, the source gives them in different places.

Key:
[1] = system: select advanced solid tumors or hematologic malignancies; experiment: Treatment duration and antitumor activity; format: in vivo, human; conditions: all cohorts, heavily pre-treated population with liver dysfunction
[2] = in vivo
[3] = population PK analysis in patients with CTCL and PTCL; cited from earlier work
clinical = conditions: human, plasma
[4] = Safety, dose-limiting toxicity and treatment-emergent adverse events
[5] = mild hepatic impairment 14 mg/m^2 vs normal 14 mg/m^2
[6] = moderate hepatic impairment 7 mg/m^2 vs normal 14 mg/m^2
[7] = patients who did not experience a DLT
[8] = severe hepatic impairment 5 mg/m^2 vs normal 14 mg/m^2
[9] = the two patients who had DLTs (individual values)
[10] = Severe (D) n=6, 5 mg/m^2, treatment-related TEAE, Cycle 1
[11] = Total n=31, all cohorts, treatment-related TEAE, Cycle 1

SMILES: C/C=C1\NC(=O)[C@H]2CSSCC/C=C/[C@H](CC(=O)N[C@H](C(C)C)C(=O)N2)OC(=O)[C@H](C(C)C)NC1=O [romidepsin]
- stable disease as best clinical response [1]: 12 patients
- plasma concentrations at last time point (48 hours after initiation of the infusion): still quantifiable at the 48-hour time point
- T1/2 (terminal half-life) (Mild Cohort B, 14 mg/m^2 IV, geometric mean ± SD): 13.55±1.41 (7) hr
- change of clearance with hepatic function (compared to the normal hepatic function cohort): clearance decreased with worsening hepatic function
- geometric mean AUCINF as % of normal hepatic function cohort [5]: ~144%
- geometric mean Cmax as % of normal hepatic function cohort [5]: approximately 115%
- geometric mean AUCINF as % of normal hepatic function cohort [6]: 114%
- geometric mean Cmax as % of normal hepatic function cohort [6]: 96%
- dose-normalized AUCINF (AUCINF/D), range [7]: 29.9 to 507.4 ng·h/mL/mg
- dose-normalized Cmax (Cmax/D), range [7]: 7.3 to 84.6 ng/mL/mg
- time at which plasma concentrations reached a plateau (post infusion initiation (first sample collected), 4-hour IV infusion): approximately 1 hour
- geometric mean AUCINF as % of normal hepatic function cohort [8]: 116%
- geometric mean Cmax as % of normal hepatic function cohort [8]: approximately 95%
- clearance [9]: 6.8 L/h
- dose-normalized AUCINF (AUCINF/D) [9]: 192.4 ng·h/mL/mg and 146.6 ng·h/mL/mg
- dose-normalized Cmax (Cmax/D) [9]: 32.1 ng/mL/mg and 40.5 ng/mL/mg
- Alkaline phosphatase increased, Any Grade ([2]; human): 1 (3%) n (%)
- Anorexia, Any Grade ([2]; human): 11 (35%) n (%)
- ECG changes (QT, ST-T changes), number of patients ([2]; human): 4
- ECG changes (QT, ST-T changes), patients ([2]; human): 23%
- Aspartate aminotransferase increased, Any Grade ([2]; human, 28 day): 1 (3%) n (%)
- Asthenia, Any Grade ([2]; human, 28 day): 3 (10%) n (%)
- Bradycardia, Any Grade ([2]; human, 28 day): 1 (3%) n (%)
- Creatinine increased, Any Grade ([2]; human, 28 day): 2 (6%) n (%)
- aPTT increased, Any Grade ([2]; human, 28 day): 1 (3%) n (%)
- decreased white blood cell counts, all grade treatment-emergent adverse event ([2]; human, 28 day): 55%
- subjects who discontinued before the end of Cycle 1 due to an adverse event ([2]; human, 28 day): 3
- vomiting, all grade treatment-emergent adverse event ([2]; human, 28 day): 42%
- Abdominal distension, Any Grade ([2]; human, 28 days): 1 (3%) n (%)
- Abdominal pain, Any Grade ([2]; human, 28 days): 1 (3%) n (%)
- Anemia, Any Grade ([2]; human, 28 days): 9 (29%) n (%)
- Anemia, Grade 3 or 4 ([2]; human, 28 days): 1 (3%) n (%)
- Diarrhea, Any Grade ([2]; human, 28 days): 2 (6%) n (%)
- Dizziness, Any Grade ([2]; human, 28 days): 2 (6%) n (%)
- Dry mouth, Any Grade ([2]; human, 28 days): 1 (3%) n (%)
- Dry skin, Any Grade ([2]; human, 28 days): 1 (3%) n (%)
- Dysgeusia, Any Grade ([2]; human, 28 days): 3 (10%) n (%)
- Dyspepsia, Any Grade ([2]; human, 28 days): 1 (3%) n (%)
- Fatigue, Any Grade ([2]; human, 28 days): 13 (42%) n (%)
- Fatigue, Grade 3 or 4 ([2]; human, 28 days): 2 (6%) n (%)
- Gastric haemorrhage, Any Grade ([2]; human, 28 days): 1 (3%) n (%)
- Gastric haemorrhage, Grade 3 or 4 ([2]; human, 28 days): 1 (3%) n (%)
- Generalized pain, Any Grade ([2]; human, 28 days): 1 (3%) n (%)
- Glossodynia, Any Grade ([2]; human, 28 days): 1 (3%) n (%)
- Headache, Any Grade ([2]; human, 28 days): 4 (13%) n (%)
- Hypercalcemia, Any Grade ([2]; human, 28 days): 1 (3%) n (%)
- Hyperuricemia, Any Grade ([2]; human, 28 days): 1 (3%) n (%)
- Hypoalbuminemia, Any Grade ([2]; human, 28 days): 3 (10%) n (%)
- Hypocalcemia, Any Grade ([2]; human, 28 days): 1 (3%) n (%)
- Hypoglycemia, Any Grade ([2]; human, 28 days): 1 (3%) n (%)
- Hypokalemia, Any Grade ([2]; human, 28 days): 1 (3%) n (%)
- Hypomagnesmia, Any Grade ([2]; human, 28 days): 1 (3%) n (%)
- Hyponatremia, Any Grade ([2]; human, 28 days): 4 (13%) n (%)
- Hypotension, Any Grade ([2]; human, 28 days): 1 (3%) n (%)
- Hypotension, Grade 3 or 4 ([2]; human, 28 days): 1 (3%) n (%)
- Muscle cramping, Any Grade ([2]; human, 28 days): 1 (3%) n (%)
- Nausea, Any Grade ([2]; human, 28 days): 21 (68%) n (%)
- Nausea, Grade 3 or 4 ([2]; human, 28 days): 2 (6%) n (%)
- Peripheral neuropathy, Any Grade ([2]; human, 28 days): 2 (6%) n (%)
- Photophobia, Any Grade ([2]; human, 28 days): 1 (3%) n (%)
- QTc prolongation, Any Grade ([2]; human, 28 days): 7 (23%) n (%)
- Tachycardia, Any Grade ([2]; human, 28 days): 2 (6%) n (%)
- Thrombocytopenia, Any Grade ([2]; human, 28 days): 16 (52%) n (%)
- Thrombocytopenia, Grade 3 or 4 ([2]; human, 28 days): 1 (3%) n (%)
- Vomiting, Any Grade ([2]; human, 28 days): 13 (42%) n (%)
- WBC decrease, Any Grade ([2]; human, 28 days): 17 (55%) n (%)
- WBC decrease, Grade 3 or 4 ([2]; human, 28 days): 7 (23%) n (%)
- Weight loss, Any Grade ([2]; human, 28 days): 1 (3%) n (%)
- Torsades de Pointes or other treatment-emergent arrhythmia [2]: no cases of Torsades de Pointes or other treatment-emergent arrhythmia
- dose-limiting toxicity [2]: without DLT
- dose-limiting toxicity, patients [2]: two patients
- effect of mild hepatic impairment on exposure [3]: no effect on romidepsin exposure
- clearance (clinical; intravenous, clearance, range, patients who did not experience a DLT): 33.3 to 557 mL/min
- half-life (clinical; iv, 5 mg/m2): 14.5 ± 4.25 h
- clearance (clinical; iv, 5 mg/m2, Cl (systemic clearance), Severe Cohort D, 5 mg/m^2 IV, geometric mean ± SD): 80 mL/min
- Vd (clinical; iv, 5 mg/m2, V (volume of distribution), Severe Cohort D, 5 mg/m^2 IV, geometric mean ± SD): 15.4 ± 5.1 L
- half-life (clinical; iv, 7 mg/m2): 14.1 ± 3.88 h
- clearance (clinical; iv, 7 mg/m2, Cl (systemic clearance), Moderate Cohort C, 7 mg/m^2 IV, geometric mean ± SD): 115 mL/min
- Vd (clinical; iv, 7 mg/m2, V (volume of distribution), Moderate Cohort C, 7 mg/m^2 IV, geometric mean ± SD): 19 ± 6.4 L
- half-life (clinical; iv, 14 mg/m2): 11.1 ± 2.1 h
- clearance (clinical; iv, 14 mg/m2, Cl (systemic clearance), Mild Cohort B, 14 mg/m^2 IV, geometric mean ± SD): 160 mL/min
- clearance (clinical; iv, 14 mg/m2, Cl (systemic clearance), Normal Cohort A, 14 mg/m^2 IV, geometric mean ± SD): 270 mL/min
- Vd (clinical; iv, 14 mg/m2, V (volume of distribution), Mild Cohort B, 14 mg/m^2 IV, geometric mean ± SD): 17.1 ± 2.5 L
- Vd (clinical; iv, 14 mg/m2, V (volume of distribution), Normal Cohort A, 14 mg/m^2 IV, geometric mean ± SD): 20.7 ± 12.5 L
- Flu-like symptoms (malaise), Any Grade [4, 10]: 1 (17%) n (%)
- Infections, Any Grade [4, 10]: 1 (17%) n (%)
- Flu-like symptoms (malaise), Any Grade [4, 11]: 3 (10%) n (%)
- Infections, Any Grade [4, 11]: 4 (13%) n (%)
- Infections, Grade 3 or 4 [4, 11]: 1 (3%) n (%)
- subjects who discontinued before the end of Cycle 1 due to death ([4]; all cohorts, n): 5
